# ChEMBL document CHEMBL1201862, “PubChem BioAssay data set” (2004)
#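 Five compound concentrations were applied to cells in 96-well plates for 48 hours; endpoints were derived by simple linear interpolation of the resulting dose-response curve. At the GI50, growth is halved.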 Active and inactive are the calls of the source. No stated cut-off is given here; in the data, active = GI50 up to about 1.1 µM and inactive = higher.
# Experiments:
# Test in all cases: growth of human tumour cells (NCI), 48 h
# [1] = tested on: A498
# [2] = tested on: HOP-62
# [3] = tested on: DMS-114
# [4] = tested on: UO-31
# [5] = tested on: SNB-78
# [6] = tested on: MOLT-4
# [7] = tested on: ACHN
# [8] = tested on: LXFL 529
# [9] = tested on: CAKI-1
# [10] = tested on: K562
# [11] = tested on: HCC 2998
# [12] = tested on: SK-OV-3
# [13] = tested on: SK-MEL-5
# [14] = tested on: 786-0
# [15] = tested on: HT-29
# [16] = tested on: SF-539
# [17] = tested on: M19-MEL
# [18] = tested on: COLO 205
# [19] = tested on: NCI-H460
# [20] = tested on: TK-10
# [21] = tested on: SF-295
# [22] = tested on: SNB-75
# [23] = tested on: SN12C
# [24] = tested on: CCRF-CEM
# [25] = tested on: SF-268
# [26] = tested on: SNB-19
# [27] = tested on: EKVX
# [28] = tested on: RPMI-8226
# [29] = tested on: KM12
# [30] = tested on: KM-20L2
# [31] = tested on: UACC-257
# [32] = tested on: DMS-273
# [33] = tested on: OVCAR-3
# [34] = tested on: OVCAR-4
# [35] = tested on: HCT-116
# [36] = tested on: NCI-H23
# [37] = tested on: NCI-H226
# [38] = tested on: U-251
# [39] = tested on: HCT-15
# [40] = tested on: HOP-18
# [41] = tested on: A549
# [42] = tested on: M14
# [43] = tested on: HL-60
# [44] = tested on: IGROV-1
# [45] = tested on: OVCAR-8
# [46] = tested on: UACC-62
# [47] = tested on: DLD-1
# [48] = tested on: SW-620
# [49] = tested on: SK-MEL-28
# [50] = tested on: OVCAR-5
# [51] = tested on: Malme-3M
# [52] = tested on: HOP-92
compound,measurement,setting,value
CCc1ccccc1NC(=O)CCc1n[nH]c(=S)o1,GI50,[1],> 100 µM (inactive)
same,GI50,[2],> 100 µM (inactive)
same,GI50,[3],> 100 µM (inactive)
same,GI50,[4],> 100 µM (inactive)
same,GI50,[5],> 100 µM (inactive)
same,GI50,[6],> 100 µM (inactive)
same,GI50,[7],> 100 µM (inactive)
same,GI50,[8],> 100 µM (inactive)
same,GI50,[9],> 100 µM (inactive)
same,GI50,[10],> 100 µM (inactive)
same,GI50,[11],> 100 µM (inactive)
same,GI50,[12],> 100 µM (inactive)
same,GI50,[13],> 100 µM (inactive)
same,GI50,[14],> 100 µM (inactive)
same,GI50,[15],> 100 µM (inactive)
same,GI50,[16],76.2 µM (inactive)
same,GI50,[17],> 100 µM (inactive)
same,GI50,[18],> 100 µM (inactive)
same,GI50,[19],> 100 µM (inactive)
same,GI50,[20],> 100 µM (inactive)
same,GI50,[21],> 100 µM (inactive)
same,GI50,[22],> 100 µM (inactive)
same,GI50,[23],> 100 µM (inactive)
same,GI50,[24],> 100 µM (inactive)
same,GI50,[25],> 100 µM (inactive)
same,GI50,[26],> 100 µM (inactive)
same,GI50,[27],> 100 µM (inactive)
same,GI50,[28],98.9 µM (inactive)
same,GI50,[29],> 100 µM (inactive)
same,GI50,[30],> 100 µM (inactive)
same,GI50,[31],> 100 µM (inactive)
same,GI50,[32],> 100 µM (inactive)
same,GI50,[33],> 100 µM (inactive)
same,GI50,[34],> 100 µM (inactive)
same,GI50,[35],18.5 µM (inactive)
same,GI50,[36],> 100 µM (inactive)
same,GI50,[37],> 100 µM (inactive)
same,GI50,[38],> 100 µM (inactive)
same,GI50,[39],19.3 µM
same,GI50,[40],> 100 µM (inactive)
same,GI50,[41],> 100 µM (inactive)
same,GI50,[42],> 100 µM (inactive)
same,GI50,[43],> 100 µM (inactive)
same,GI50,[44],> 100 µM (inactive)
same,GI50,[45],> 100 µM (inactive)
same,GI50,[46],> 100 µM (inactive)
same,GI50,[47],92.5 µM (inactive)
same,GI50,[48],18.6 µM (inactive)
same,GI50,[49],> 100 µM (inactive)
same,GI50,[50],> 100 µM (inactive)
same,GI50,[51],> 100 µM (inactive)
same,GI50,[52],> 100 µM (inactive)
